5 compounds from the NIST ThermoML archive (doi:10.1016/j.jct.2005.12.004) can be followed below.

Each structure is given as a SMILES string. Numbers after ± are expanded uncertainties.

For data set [1] the following is noted: DTA.
Data set [2] can be described thus: Molar enthalpy of transition or fusion. The note with it: DSC.

On to `NCCCCCCN` [1,6-hexanediamine], for which, in data set [1] (Crystal), the Normal melting temperature came to 38.5 ± 0.53 °C. The “Molar enthalpy of transition or fusion” value in data set [2] (Crystal) was found to be 9.41 ± 0.263 kcal/mol.
As for `NCCCCCCCCN` [1,8-diaminooctane], the Normal melting temperature in data set [1] (Crystal) was determined as 51.73 ± 0.53 °C. For the same compound, the “Molar enthalpy of transition or fusion” value in data set [2] (Crystal) amounted to 12.1 ± 0.287 kcal/mol.
Take `NCCCCCCCCCN` [1,9-diaminononane]: the Normal melting temperature in data set [1] (Crystal 1) is 34.62 ± 0.53 °C. Moreover, the Triple point temperature in data set [1] (Crystal 2) worked out at 301.14 ± 0.53 K. Also, the results for the “Molar enthalpy of transition or fusion” value in data set [2] (Crystal 1) and in data set [2] (Crystal 2) were 8.47 ± 0.263 kcal/mol and 2.05 ± 0.201 kcal/mol, respectively.
Consider `NCCCCCCCCCCCCN` [1,12-dodecanediamine], for which the Normal melting temperature in data set [1] (Crystal) worked out at 68.69 ± 0.53 °C. The “Molar enthalpy of transition or fusion” value in data set [2] (Crystal) came to 16 ± 0.359 kcal/mol.
On to `c1ccc(-c2ccccc2)cc1` [biphenyl], for which the Normal melting temperature in data set [1] (Crystal) worked out at 69.22 ± 0.53 °C. In data set [2] (Crystal), the “Molar enthalpy of transition or fusion” value was determined as 4.71 ± 0.215 kcal/mol.
